Reference: patent US12565504B2, “Spirocyclic O-glycoprotein-2-acetamido-2-deoxy-3-d-glucopyranosidase inhibitors” (BIOGEN MA INC., priority 2019, dated 2026)

Key:
[1] = target: Recombinant full length human OGA enzyme (Homo sapiens (Human), UniProt O60502); assay: OGA Enzyme Inhibition Biochemical Assay; details: 1 nM OGA, 100 μM 4-MUGlcNAc, 90 minutes, pH 6.4
Method in brief: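 Full-length recombinant human OGA with fluorogenic 4-MUGlcNAc in McIlvaine buffer pH 6.4, 0.01% BSA; 90 min at room temperature, glycine pH 10 quench, fluorescence Ex 355/Em 460 nm. 10-point, 4-fold dilution from 20 μM; 4-parameter variable-slope fit.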

OGA (S400 O-GLCNAC) = OGA (S400 O-GLCNAC) (Homo sapiens (Human), UniProt O60502); assay: Cellular OGA-Tau MSD Assay; format: cell-based; details: HEK-293T cells transfected with OGT and Tau-V5; Tau-S400-GlcNAc MSD readout
Chain of OGA (S400 O-GLCNAC) (O60502 whole entry): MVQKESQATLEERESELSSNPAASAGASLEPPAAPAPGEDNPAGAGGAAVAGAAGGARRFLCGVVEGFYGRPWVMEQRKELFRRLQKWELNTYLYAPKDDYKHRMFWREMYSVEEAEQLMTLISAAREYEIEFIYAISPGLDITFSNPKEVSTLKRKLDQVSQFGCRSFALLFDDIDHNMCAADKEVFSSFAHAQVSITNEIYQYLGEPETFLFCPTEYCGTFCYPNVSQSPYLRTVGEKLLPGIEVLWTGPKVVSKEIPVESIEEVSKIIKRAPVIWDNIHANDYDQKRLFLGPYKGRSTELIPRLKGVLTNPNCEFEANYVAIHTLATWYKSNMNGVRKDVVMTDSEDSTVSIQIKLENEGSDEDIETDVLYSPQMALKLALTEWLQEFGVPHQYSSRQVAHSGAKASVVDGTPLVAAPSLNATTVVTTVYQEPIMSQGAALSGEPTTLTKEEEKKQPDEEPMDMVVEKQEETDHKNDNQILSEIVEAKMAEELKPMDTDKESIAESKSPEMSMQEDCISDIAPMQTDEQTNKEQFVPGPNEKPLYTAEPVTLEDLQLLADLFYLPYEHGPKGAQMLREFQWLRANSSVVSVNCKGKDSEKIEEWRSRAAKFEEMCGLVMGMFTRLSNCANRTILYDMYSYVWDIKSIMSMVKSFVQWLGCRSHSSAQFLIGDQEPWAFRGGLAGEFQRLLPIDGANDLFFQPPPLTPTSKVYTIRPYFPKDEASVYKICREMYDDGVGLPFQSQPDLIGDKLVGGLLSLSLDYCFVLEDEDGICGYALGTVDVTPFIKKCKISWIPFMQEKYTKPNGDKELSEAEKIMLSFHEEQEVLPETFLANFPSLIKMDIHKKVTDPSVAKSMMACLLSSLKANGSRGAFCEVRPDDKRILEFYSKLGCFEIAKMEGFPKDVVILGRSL
Method in brief: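 HEK-293T cells transiently co-expressing OGT and Tau-V5 were treated overnight at 37° C with compounds (top 1 uM, 3-fold, 10 points). Lysate Tau was captured on V5 antibody, and S400-GlcNAc was detected by MSD electrochemiluminescence. IC50 was derived from a 4-parameter fit of normalized % activity.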

P-gp (MDR1) = assay: MDR1-MDCK Efflux Ratio Assay; format: in vitro ADME; details: dog, MDR1-MDCK cells, pH 7.4, read-out: MDR1-MDCK Efflux Ratio (B-A/A-B)
Protocol: MDR1-MDCK cell monolayers were grown to confluence on microporous polyester membranes in 96-well Corning insert plates. The permeability assay buffer was Hanks' Balanced Salt Solution containing 10 mM HEPES at pH of 7.4. Loperamide (1 μM) was used as a positive control P-gp substrate. Propranolol and Bestatin (1 μM) were used as high and low permeability comparators, respectively.
Test compounds or positive control P-gp substrate/permeability comprators were added to respective apical and basolateral chambers for bidirectional assessment of permeability. Receiver buffer (transport buffer supplemented with 1% bovine serum albumin) was added to respective receiver chambers. MDR1-MDCK cells were incubated with test compounds at 37° C. with 5% CO2 for 2 hr. Samples were collected from the donor chamber at both 0 and 120 minutes, and from the receiver chamber at 120 minutes. Test and control compound concentrations were determined using LC-MS/MS analysis. Each determination was performed in triplicate.

[2] = Rat Liver Microsome Stability Assay; details: rat liver microsomes 0.5 mg/mL, compound 1 μM; Qh 55 mL/minute/kg
Protocol: Aliquots (40 uL) at 0, 5, 10, 15, 25 and 40 minutes post NADPH addition (or compound addition for reactions in absence of NADPH) were transferred into individual 96-well plate wells containing 40 ng/ml of 8-cyclopently-1,3-dipropylxanthine (CPDPX, internal standard) in 160 uL acetonitrile:methanol (1:1 v/v).
The LC/MS/MS system consisted of an ultra high throughput RapidFire® 300 system (Agilent Technologies, Santa Clara, CA) coupled to a Triple Quad 5500 mass spectrometer (ABSciex, Foster City, CA). Sample load and wash were performed on a RapidFire® C4 cartridge using 0.1% formic acid in water as mobile phase A and sample elution using 0.1% formic acid in acetonitrile:methanol (1:1 v/v) as mobile phase B.
CLint, app (apparent intrinsic clearance) was calculated using the following equation for microsome stability.
[formula] • where “a” represents 45 grams of liver/kg of body weight for rat. • CLint,app (apparent intrinsic clearance) was calculated using the following equation for hepatocyte stability: • CLhep (hepatic clearance) was calculated using the following equation for microsomes
[formula] • using 55 mL/minute/kg as Qh (hepatic blood flow) for rat.

Chain of Recombinant full length human OGA enzyme (O60502 whole entry): as above

Row | IC50 [1] [nM] | IC50 (OGA (S400 O-GLCNAC)) [nM] | efflux ratio at 2 hr (P-gp (MDR1)) | RLM % Qh (%) [2] [%] | Structure (SMILES)
1 | < 1 | 9 | 9.2 | 53 | COCCOc1cc2c(cn1)O[C@]1(C2)C[C@H](C)N(Cc2sc(NC(C)=O)nc2F)C1 [Example 47, N-(4-Fluoro-5-(((2R,5′S)-5-(2-methoxyethoxy)-5′-methyl-3H-spiro[furo[2,3-c]pyridine-2,3′-pyrrolidin]-1′-yl)methyl)thiazol-2-yl)acetamide]
2 | 1500 | > 1000 | 0.8 | 94 | CC(=O)Nc1nc(F)c(CN2CCCC3(COc4ccccc43)C2)s1 (stereo not shown) [Example 54, N-(5-((2H-Spiro[benzofuran-3,3′-piperidin]-1′-yl)methyl)-4-fluorothiazol-2-yl)acetamide]
3 | 13 | 57 | 26 | 78 | CC(=O)Nc1nc(F)c(CN2CC3(C[C@@H]2C)OCc2cccnc23)s1 (stereo partly drawn) [Example 63, N-(4-Fluoro-5-(((5′S)-5′-methyl-5H-spiro[furo[3,4-b]pyridine-7,3′-pyrrolidin]-1′-yl)methyl)thiazol-2-yl)acetamide]
4 | 65 | 9 | 7.9 | 93 | COc1nccc2c1COC21C[C@H](C)N(Cc2cnc(NC(C)=O)s2)C1 (stereo partly drawn) [Example 78, N-(5-(((5′S)-4-Methoxy-5′-methyl-3H-spiro[furo[3,4-c]pyridine-1,3′-pyrrolidin]-1′-yl)methyl)thiazol-2-yl)acetamide]
5 | 9 | 16 | 3.5 | 94 | CC(=O)Nc1ncc(CN2CC3(C[C@@H]2C)OCc2ccccc23)s1 (stereo partly drawn) [Example 59, N-(5-(((5′S)-5′-Methyl-3H-spiro[isobenzofuran-1,3′-pyrrolidin]-1′-yl)methyl)thiazol-2-yl)acetamide]
6 | 170 | 818 | 2.4 | 88 | CC(=O)Nc1ncc(CN2CCC3(C2)OCc2ccccc23)s1 (stereo not shown) [Example 57, N-(5-((3H-Spiro[isobenzofuran-1,3′-pyrrolidin]-1′-yl)methyl)thiazol-2-yl)acetamide]
7 | 9.2 | 23.7 | 21.6 | 78 | CC(=O)Nc1nc(F)c(CN2CCCC3(C2)OCc2ccncc23)s1 (stereo not shown) [Example 73, N-(5-((1H-Spiro[furo[3,4-c]pyridine-3,3′-piperidin]-1′-yl)methyl)-4-fluorothiazol-2-yl)acetamide]
8 | 1.4 | 34 | 12 | 16 | CC(=O)Nc1nc(F)c(CN2C[C@@]3(Cc4cc(=O)n(C)cc4O3)C[C@@H]2C)s1 [Example 48, N-(5-(((2R,5′S)-5′,6-Dimethyl-5-oxo-5,6-dihydro-3H-spiro[furo[2,3-c]pyridine-2,3′-pyrrolidin]-1′-yl)methyl)-4-fluorothiazol-2-yl)acetamide]
9 | 1 | 73 | 2.5 | 16 | CC(=O)Nc1nc(F)c(CN2C[C@@]3(Cc4cc(=O)[nH]cc4O3)C[C@@H]2C)s1 [Example 49, N-(4-Fluoro-5-(((2R,5′S)-5′-methyl-5-oxo-5,6-dihydro-3H-spiro[furo[2,3-c]pyridine-2,3′-pyrrolidin]-1′-yl)methyl)thiazol-2-yl)acetamide]

Second part, the compound before the results:

Row | Structure (SMILES) | IC50 [1] [nM] | IC50 (OGA (S400 O-GLCNAC)) [nM] | efflux ratio at 2 hr (P-gp (MDR1)) | RLM % Qh (%) [2] [%]
10 | CC(=O)Nc1ncc(CN2C[C@@]3(Cc4cc(N5C[C@@H](C)O[C@@H](C)C5)ncc4O3)C[C@@H]2C)s1 [Example 38, N-(5-(((2R,5′S)-5-((2R,6S)-2,6-Dimethylmorpholino)-5′-methyl-3H-spiro[furo[2,3-c]pyridine-2,3′-pyrrolidin]-1′-yl)methyl)thiazol-2-yl)acetamide] | 1.2 | 9.9 | 29.5 | 42
11 | CC(=O)Nc1nc(F)c(CN2C[C@@]3(Cc4cc(Cl)ncc4O3)C[C@@H]2C)s1 [Example 10, N-(5-(((2R,5′S)-5-Chloro-5′-methyl-3H-spiro[furo[2,3-c]pyridine-2,3′-pyrrolidin]-1′-yl)methyl)-4-fluorothiazol-2-yl)acetamide] | 1 | 8 | 5.2 | 75
12 | CC(=O)Nc1ncc(CN2CCC3(Cc4ccccc4O3)C2)s1 (stereo not shown) [Example 3, N-(5-((3H-Spiro[benzofuran-2,3′-pyrrolidin]-1′-yl)methyl)thiazol-2-yl)acetamide] | 330 | 1000 | 1.7 | 81
13 | CC(=O)Nc1ncc(CN2C[C@@]3(Cc4cc(Cl)ncc4O3)C[C@@H]2C)s1 [Example 11, N-(5-(((2R,5′S)-5-Chloro-5′-methyl-3H-spiro[furo[2,3-c]pyridine-2,3′-pyrrolidin]-1′-yl)methyl)thiazol-2-yl)acetamide] | 6 | 9 | 8.4 | 70
14 | CC(=O)Nc1nc(F)c(CN2C[C@@]3(Cc4cc(N5CCN(C)CC5)ncc4O3)C[C@@H]2C)s1 [Example 45, N-(4-Fluoro-5-(((2R,5′S)-5′-methyl-5-(4-methylpiperazin-1-yl)-3H-spiro[furo[2,3-c]pyridine-2,3′-pyrrolidin]-1′-yl)methyl)thiazol-2-yl)acetamide] | < 1 | 3 | 94 | 65
15 | COCCN(C)c1cc2c(cn1)O[C@]1(C2)C[C@H](C)N(Cc2sc(NC(C)=O)nc2F)C1 [Example 33, N-(4-Fluoro-5-(((2R,5′S)-5-((2-methoxyethyl)(methyl)amino)-5′-methyl-3H-spiro[furo[2,3-c]pyridine-2,3′-pyrrolidin]-1′-yl)methyl)thiazol-2-yl)acetamide] | < 1 | 2 | 22 | 82
16 | CC(=O)Nc1ncc(CN2CCC3(Cc4cnc(Cl)cc4O3)C2)s1 (stereo not shown) [Example 8, N-(5-((6-Chloro-3H-spiro[furo[3,2-c]pyridine-2,3′-pyrrolidin]-1′-yl)methyl)thiazol-2-yl)acetamide] | 74 | 654 | 9.4 | 47
17 | CC(=O)Nc1nc(F)c(CN2C[C@@]3(Cc4cc(C(F)F)ncc4O3)C[C@@H]2C)s1 [Example 26, N-(5-(((2R,5′S)-5-(Difluoromethyl)-5′-methyl-3H-spiro[furo[2,3-c]pyridine-2,3′-pyrrolidin]-1′-yl)methyl)-4-fluorothiazol-2-yl)acetamide] | 3 | 5 | 5.6 | 51
18 | CC(=O)Nc1ncc(CN2C[C@@]3(Cc4cc(N5CCC5)ncc4O3)C[C@@H]2C)s1 [Example 35, N-(5-(((2R,5′S)-5-(Azetidin-1-yl)-5′-methyl-3H-spiro[furo[2,3-c]pyridine-2,3′-pyrrolidin]-1′-yl)methyl)thiazol-2-yl)acetamide] | < 1 | 4 | 39.5 | 50
19 | CC(=O)Nc1nc(F)c(CN2C[C@@]3(Cc4cc(C5CC5)ncc4O3)C[C@@H]2C)s1 [Example 24, N-(5-(((2R,5′S)-5-Cyclopropyl-5′-methyl-3H-spiro[furo[2,3-c]pyridine-2,3′-pyrrolidin]-1′-yl)methyl)-4-fluorothiazol-2-yl)acetamide] | 1 | 12 | 6.5 | 75
